Holding throughout (experiment): Kinase inhibitor library screening, PrestoBlue cell viability, 1 or 10 μM, 72 h
Assay [1] deals with 501Mel-GP cells (Dabrafenib-resistant). To be noted: 72 h.
For assay [2], the system named is IGR37-GP cells (Dabrafenib-resistant).
Assay [3] concerns A375 cells (parental).
Assay [4] has as its system A375-XP cells (Vemurafenib-resistant).
Assay [5] concerns 501Mel-XP cells (Vemurafenib-resistant). To be noted: 72 h.
For assay [6], the system named is 501Mel cells (parental). The note with it: 72 h. Put shortly: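 Sensitive parental cells and their resistant derivatives were exposed to library compounds for 72 h. Values represent viability as a percentage of untreated cells.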
For assay [7], the system named is IGR37-XP cells (Vemurafenib-resistant).
For assay [8], the system named is A375-GP cells (Dabrafenib-resistant).
In assay [9] the test system is IGR37 cells (parental).

Take `CO[C@@H](C(=O)N1Cc2n[nH]c(NC(=O)c3ccc(N4CCN(C)CC4)cc3)c2C1)c1ccccc1` [Danusertib (PHA-739358)]: the “cell viability (kinase inhibitor library screening)” value stood at 94.8% in assay [1] (501Mel GP, 1μΜ); 72.3% in [1] (501Mel GP, 10μΜ); 66.0% in assay [2] (IGR37 GP, 10μΜ, 72 h); 28.0% in [3] (A375 Parental, 10μΜ, 72 h); 51.2% in assay [3] (A375 Parental, 1μΜ, 72 h); 53.8% in [4] (A375 XP, 1μΜ, 72 h). In addition, the “cell viability (kinase inhibitor library screening)” value in [4] (A375 XP, 10μΜ, 72 h) came out at 35.5%; in [5] (501Mel XP, 1μΜ) it was 84.5%; in assay [5] (501Mel XP, 10μΜ), 58.4%; in assay [6] (501Mel Parental, 1μΜ), 94.3%; in [6] (501Mel Parental, 10μΜ) it was 80.7%; in [7] (IGR37 XP, 10μΜ, 72 h) it was 21.3%. Moreover, the “cell viability (kinase inhibitor library screening)” value in [8] (A375 GP, 1μΜ, 72 h) worked out at 48.5%; in assay [8] (A375 GP, 10μΜ, 72 h) it was 27.8%; in assay [9] (IGR37 Parental, 10μΜ, 72 h), 59.2%.
As a reminder, the viability is a read-out of living cells in per cent, often relative to untreated cells. For `CCS(=O)(=O)N1CC(CC#N)(n2cc(-c3ncnc4[nH]ccc34)cn2)C1` [Baricitinib (LY3009104)], the viability at 1 µM in assay [1] (Homo sapiens, read-out: cell viability, 501Mel GP, 1μΜ) came out at 104%; in [2] (Homo sapiens, IGR-37, 72 h, read-out: cell viability, IGR37 GP, 1μΜ) it was 92%; in assay [3] (Homo sapiens, A-375, 72 h, read-out: cell viability, A375 Parental, 1μΜ) it was 103%; in assay [4] (Homo sapiens, A-375, 72 h, read-out: cell viability, A375 XP, 1μΜ), 105%; in [5] (Homo sapiens, read-out: cell viability, 501Mel XP, 1μΜ) it was 98.5%; in assay [6] (Homo sapiens, read-out: cell viability, 501Mel Parental, 1μΜ) it was 95%. The viability at 1 µM in assay [7] (Homo sapiens, IGR-37, 72 h, read-out: cell viability, IGR37 XP, 1μΜ) stood at 96.5%; in assay [8] (Homo sapiens, A-375, 72 h, read-out: cell viability, A375 GP, 1μΜ) it was 106%; in assay [9] (Homo sapiens, IGR-37, 72 h, read-out: cell viability, IGR37 Parental, 1μΜ), 99.6%. The viability at 10 µM was determined as 83.8% in assay [1] (Homo sapiens, read-out: cell viability, 501Mel GP, 10μΜ); 91.5% in assay [2] (Homo sapiens, IGR-37, 72 h, read-out: cell viability, IGR37 GP, 10μΜ); 94.8% in assay [3] (Homo sapiens, A-375, 72 h, read-out: cell viability, A375 Parental, 10μΜ); 102% in assay [4] (Homo sapiens, A-375, 72 h, read-out: cell viability, A375 XP, 10μΜ); 74.5% in assay [5] (Homo sapiens, read-out: cell viability, 501Mel XP, 10μΜ); 88.9% in assay [6] (Homo sapiens, read-out: cell viability, 501Mel Parental, 10μΜ). Moreover, the viability at 10 µM was determined as 75.3% in [7] (Homo sapiens, IGR-37, 72 h, read-out: cell viability, IGR37 XP, 10μΜ); 88.4% in assay [8] (Homo sapiens, A-375, 72 h, read-out: cell viability, A375 GP, 10μΜ); 98.8% in assay [9] (Homo sapiens, IGR-37, 72 h, read-out: cell viability, IGR37 Parental, 10μΜ).
On to `COc1cc(N2CCC(N3CCN(C)CC3)CC2)ccc1Nc1ncc(Cl)c(Nc2ccccc2S(=O)(=O)C(C)C)n1` [TAE684 (NVP-TAE684)], for which the “cell viability (kinase inhibitor library screening)” value was 112.8% in [1] (501Mel GP, 1μΜ); -0.0599% in assay [1] (501Mel GP, 10μΜ); 84.1% in assay [2] (IGR37 GP, 1μΜ, 72 h); 1.7% in [2] (IGR37 GP, 10μΜ, 72 h); 8.8% in assay [3] (A375 Parental, 10μΜ, 72 h); 76.3% in assay [3] (A375 Parental, 1μΜ, 72 h). Also, the “cell viability (kinase inhibitor library screening)” value is listed as 72.8% in [4] (A375 XP, 1μΜ, 72 h); 13.8% in assay [4] (A375 XP, 10μΜ, 72 h); -0.231% in [5] (501Mel XP, 10μΜ); 103.2% in assay [6] (501Mel Parental, 1μΜ); 0.331% in assay [6] (501Mel Parental, 10μΜ); 67.8% in assay [7] (IGR37 XP, 1μΜ, 72 h). Further, the “cell viability (kinase inhibitor library screening)” value is recorded as 1.0% in assay [7] (IGR37 XP, 10μΜ, 72 h); 61.5% in assay [8] (A375 GP, 1μΜ, 72 h); 8.3% in assay [8] (A375 GP, 10μΜ, 72 h); 99.2% in assay [9] (IGR37 Parental, 1μΜ, 72 h); 4.4% in assay [9] (IGR37 Parental, 10μΜ, 72 h).
Consider `CCn1cc(-c2ccnc3[nH]c(-c4cccc(CN(C)C)c4)cc23)c(-c2ccc(NC(=O)N(C)C)cc2)n1` [GSK1070916], for which the “cell viability (kinase inhibitor library screening)” value in assay [1] (501Mel GP, 10μΜ) came to 50.8%; in assay [2] (IGR37 GP, 1μΜ, 72 h), 98.0%; in [2] (IGR37 GP, 10μΜ, 72 h), 46.1%; in [3] (A375 Parental, 10μΜ, 72 h) it was 36.0%; in assay [3] (A375 Parental, 1μΜ, 72 h) it was 53.8%; in assay [4] (A375 XP, 1μΜ, 72 h), 57.6%. Further, the “cell viability (kinase inhibitor library screening)” value was 37.9% in assay [4] (A375 XP, 10μΜ, 72 h); 90.5% in [5] (501Mel XP, 1μΜ); 18.1% in [5] (501Mel XP, 10μΜ); 94.0% in assay [6] (501Mel Parental, 1μΜ); 36.8% in assay [6] (501Mel Parental, 10μΜ); 88.9% in assay [7] (IGR37 XP, 1μΜ, 72 h). Also, the “cell viability (kinase inhibitor library screening)” value in assay [7] (IGR37 XP, 10μΜ, 72 h) is listed as 7.5%; in assay [8] (A375 GP, 1μΜ, 72 h) it was 47.6%; in assay [8] (A375 GP, 10μΜ, 72 h), 34.9%; in assay [9] (IGR37 Parental, 1μΜ, 72 h), 94.1%; in assay [9] (IGR37 Parental, 10μΜ, 72 h), 85.3%.
With `CCc1cccc(CC)c1NC(=O)N1Cc2n[nH]c(NC(=O)c3ccc(N4CCN(C)CC4)cc3)c2C1` [PHA-680632], the “cell viability (kinase inhibitor library screening)” value turned out to be 105.0% in assay [1] (501Mel GP, 1μΜ); 79.1% in [1] (501Mel GP, 10μΜ); 92.2% in assay [2] (IGR37 GP, 1μΜ, 72 h); 78.7% in assay [2] (IGR37 GP, 10μΜ, 72 h); 37.5% in [3] (A375 Parental, 10μΜ, 72 h); 85.1% in assay [3] (A375 Parental, 1μΜ, 72 h). Further, the “cell viability (kinase inhibitor library screening)” value came out at 93.5% in [4] (A375 XP, 1μΜ, 72 h); 51.3% in [4] (A375 XP, 10μΜ, 72 h); 96.6% in [5] (501Mel XP, 1μΜ); 75.1% in [5] (501Mel XP, 10μΜ); 104.0% in assay [6] (501Mel Parental, 1μΜ); 95.7% in [6] (501Mel Parental, 10μΜ). Also, the “cell viability (kinase inhibitor library screening)” value is on record as 96.4% in assay [7] (IGR37 XP, 1μΜ, 72 h); 40.2% in assay [7] (IGR37 XP, 10μΜ, 72 h); 81.0% in assay [8] (A375 GP, 1μΜ, 72 h); 37.4% in assay [8] (A375 GP, 10μΜ, 72 h); 93.9% in assay [9] (IGR37 Parental, 1μΜ, 72 h); 73.1% in assay [9] (IGR37 Parental, 10μΜ, 72 h).
Consider `CNC(=O)c1cccc(-c2ccc3c(N4CCOC[C@@H]4C)nc(N4CCOC[C@@H]4C)nc3n2)c1` [AZD2014], for which the “Cell viability in kinase inhibitor library screening, 501Mel GP, 1μΜ” value in [1] (501Mel GP, 1μΜ, in %) amounted to 28.3. The “Cell viability in kinase inhibitor library screening, 501Mel GP, 10μΜ” value in assay [1] (501Mel GP, 10μΜ, in %) stood at 9.6. For the same compound, the Cell viability in kinase inhibitor library screening, IGR37 GP, 10μΜ in assay [2] (IGR37 GP, 10μΜ, 72 h) stood at 28.2%. Further, in assay [2] (IGR37 GP, 1μΜ, 72 h, in %), the “Cell viability in kinase inhibitor library screening, IGR37 GP, 1μΜ” value is 63.5. The “Cell viability in kinase inhibitor library screening, A375 Parental, 10μΜ” value in assay [3] (A375 Parental, 10μΜ, 72 h) is 21.1. The “Cell viability in kinase inhibitor library screening, A375 Parental, 1μΜ” value in assay [3] (A375 Parental, 1μΜ, 72 h) is listed as 34.9. Moreover, the “Cell viability in kinase inhibitor library screening, A375 XP, 1μΜ” value in assay [4] (A375 XP, 1μΜ, 72 h) is 29.1. For the same compound, the “Cell viability in kinase inhibitor library screening, A375 XP, 10μΜ” value in [4] (A375 XP, 10μΜ, 72 h) amounted to 19.4. For the same compound, in assay [5] (501Mel XP, 1μΜ, in %), the “Cell viability in kinase inhibitor library screening, 501Mel XP, 1μΜ” value is listed as 21.8. Further, the “Cell viability in kinase inhibitor library screening, 501Mel XP, 10μΜ” value in assay [5] (501Mel XP, 10μΜ, in %) came to 3.5. In addition, the “Cell viability in kinase inhibitor library screening, 501Mel Parental, 1μΜ” value in [6] (501Mel Parental, 1μΜ, in %) was 39.4. In addition, the “Cell viability in kinase inhibitor library screening, 501Mel Parental, 10μΜ” value in assay [6] (501Mel Parental, 10μΜ, in %) came out at 8.5. This compound showed a Cell viability in kinase inhibitor library screening, IGR37 XP, 10μΜ in assay [7] (IGR37 XP, 10μΜ, 72 h) of 9.4%. In addition, the “Cell viability in kinase inhibitor library screening, IGR37 XP, 1μΜ” value in assay [7] (IGR37 XP, 1μΜ, 72 h, in %) is reported as 49.7. The “Cell viability in kinase inhibitor library screening, A375 GP, 1μΜ” value in assay [8] (A375 GP, 1μΜ, 72 h) is recorded as 33.7. The “Cell viability in kinase inhibitor library screening, A375 GP, 10μΜ” value in [8] (A375 GP, 10μΜ, 72 h) worked out at 19.6. In assay [9] (IGR37 Parental, 10μΜ, 72 h, in %), the “Cell viability in kinase inhibitor library screening, IGR37 Parental, 10μΜ” value was 12.3.

The record behind these values is paper PMC6364417, “Kinase inhibitor library screening identifies synergistic drug combinations effective in sensitive and resistant melanoma cells” (Journal of Experimental & Clinical Cancer Research : CR, 2019).
